US6737383B1, “Herbicidal oxadiazolidines” (priority 1999, dated 2004)

Columns and labels:
corn = experiment: Test B pre/postemergence corn; format: in vivo, Zea mays
How it was run: (§1)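 Response is a visual 0-to-10 score relative to untreated plants, where 0 means no effect and 10 means complete control, taken twelve to sixteen days after application. Treatments went onto soil at planting and onto foliage of 1- to 4-leaf plants, using a surfactant-containing non-phytotoxic solvent.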

rice = experiment: Test B flood test rice; format: in vivo, Oryza sativa
Procedure: At the same time, these crop and weed species were also treated with postemergence applications of test chemicals formulated in the same manner. Plants ranged in height from 2 to 18 cm (1- to 4-leaf stage) for postemergence treatments. Plant species in the flood test consisted of rice (Oryza sativa), smallflower flatsedge (Cyperus difformis), duck salad (Heteranthera limosa) and bamyardgrass (Echinochloa crus-galli) grown to the 2-leaf stage for testing. Treated plants and controls were maintained in a greenhouse for twelve to sixteen days, after which all species were compared to controls and visually evaluated. Plant response ratings, summarized in Table B, are based on a scale of 0 to 10 where 0 is no effect and 10 is complete control. A dash (−) response means no test result.

smallflower flatsedge = experiment: Test B flood test smallflower flatsedge; format: in vivo, Cyperus difformis
How it was run: (§2)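 Plants were grown to the 2-leaf stage before treatment with test chemical, then held in a greenhouse for twelve to sixteen days. Injury was visually rated against untreated controls on a 0–10 scale, where 0 is no effect and 10 is complete control.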

duck salad = experiment: Test B flood test duck salad; format: in vivo, Heteranthera limosa
How it was run: as §2

bamyardgrass = experiment: Test B flood test barnyardgrass; format: in vivo, Echinochloa crus-galli
How it was run: as §2

blackgrass = experiment: Test B pre/postemergence blackgrass; format: in vivo, Alopecurus myosuroides
How it was run: as §1

surinam grass = experiment: Test B pre/postemergence surinam grass; format: in vivo, Brachiaria decumbens
How it was run: as §1

cocklebur = experiment: Test B pre/postemergence cocklebur; format: in vivo, Xanthium strumarium
How it was run: as §1

crabgrass = experiment: Test B pre/postemergence crabgrass; format: in vivo, Digitaria sanguinalis
How it was run: as §1

giant foxtail = experiment: Test B pre/postemergence giant foxtail; format: in vivo, Setaria faberii
How it was run: as §1

morningglory = experiment: Test B pre/postemergence morningglory; format: in vivo, Ipomoea hederacea
How it was run: as §1

pigweed = experiment: Test B pre/postemergence pigweed; format: in vivo, Amaranthus retroflexus
How it was run: as §1

rape = experiment: Test B pre/postemergence rape; format: in vivo, Brassica napus
How it was run: as §1

soybean = experiment: Test B pre/postemergence soybean; format: in vivo, Glycine max
How it was run: as §1

sugar beet = experiment: Test B pre/postemergence sugar beet; format: in vivo, Beta vulgaris
How it was run: as §1

velvetleaf = experiment: Test B pre/postemergence velvetleaf; format: in vivo, Abutilon theophrasti
How it was run: as §1

wheat = experiment: Test B pre/postemergence wheat; format: in vivo, Triticum aestivum
How it was run: as §1

wild oat = experiment: Test B pre/postemergence wild oat; format: in vivo, Avena fatua
How it was run: as §1

purple nutsedge = experiment: Test B pre/postemergence purple nutsedge; format: in vivo, Cyperus rotundus
How it was run: as §1

[1] = Postemergence, Rate 62 g/ha, scale 0 to 10, 0 is no effect, 10 is complete control
[2] = Rate 125 g/ha, Postemergence section (flood test species), scale 0 to 10, 0 no effect, 10 complete control
[3] = Rate 500 g/ha, listed under Postemergence (flood test species), scale 0 to 10, 0 no effect, 10 complete control
[4] = flood test, listed under Postemergence, Rate 250 g/ha, scale 0 to 10, 0 no effect, 10 complete control
[5] = Postemergence, Rate 250 g/ha, scale 0 to 10
[6] = Postemergence, Rate 500 g/ha, scale of 0 to 10 where 0 is no effect and 10 is complete control
[7] = Preemergence, Rate 62 g/ha, scale 0 to 10 (0 no effect, 10 complete control)
[8] = Preemergence, Rate 125 g/ha, scale of 0 to 10 where 0 is no effect and 10 is complete control
[9] = Preemergence, Rate 250 g/ha, scale 0 to 10, 0 is no effect, 10 is complete control
[10] = Preemergence, Rate 500 g/ha, scale 0 to 10, 0 is no effect, 10 is complete control
[11] = Rate 62 g/ha, Postemergence, scale of 0 to 10 where 0 is no effect and 10 is complete control
[12] = Rate 125 g/ha, Postemergence, scale 0 to 10, 0 is no effect, 10 is complete control
[13] = Postemergence block (flood test species), Rate 250 g/ha, scale 0 to 10
[14] = Postemergence section (flood test species), Rate 500 g/ha, scale of 0 to 10 where 0 is no effect and 10 is complete control
[15] = Rate 125 g/ha, Postemergence section (flood test species), scale 0 to 10, 0 is no effect, 10 is complete control
[16] = Rate 62 g/ha, Postemergence (flood test species), scale of 0 to 10 where 0 is no effect and 10 is complete control

## Cc1ccccc1-n1c(=O)on(C(=O)N(c2ccc(F)cc2F)C2CC2)c1=O [Compound 50]
corn; Rate 125 g/ha, Postemergence, scale 0 to 10, 0 no effect, 10 complete control
  Corn plant response rating: 0
rice; [1]
  Rice plant response rating: 0
rice; [2]
  Rice plant response rating: 0
rice; [3]
  Rice plant response rating: 0
rice; [4]
  Rice plant response rating: 0
Smallflower flatsedge; [1]
  S. Flatsedge plant response rating: 0
Smallflower flatsedge; [2]
  S. Flatsedge plant response rating: 0
Smallflower flatsedge; [3]
  S. Flatsedge plant response rating: 0
Smallflower flatsedge; [4]
  S. Flatsedge plant response rating: 0
Duck salad; [1]
  Ducksalad plant response rating: 0
Duck salad; [2]
  Ducksalad plant response rating: 0
Duck salad; [3]
  Ducksalad plant response rating: 0
Duck salad; [4]
  Ducksalad plant response rating: 0
bamyardgrass; [1]
  Barnyardgrass plant response rating: 0
bamyardgrass; [2]
  Barnyardgrass plant response rating: 0
bamyardgrass; [3]
  Barnyardgrass plant response rating: 0
bamyardgrass; [4]
  Barnyardgrass plant response rating: 0

## CC(C)N(C(=O)n1oc(=O)n(C2CCCCCC2)c1=O)C1=CCCCC1 [Compound 428]
blackgrass; [5]
  Blackgrass plant response rating: 3
blackgrass; [6]
  Blackgrass plant response rating: 4
blackgrass; [7]
  Plant response rating, Blackgrass: 0
blackgrass; [8]
  Plant response rating, Blackgrass: 0
blackgrass; [9]
  Blackgrass plant response rating: 0
blackgrass; [10]
  Blackgrass plant response rating: 2
blackgrass; [11]
  Blackgrass plant response rating: 0
blackgrass; [12]
  Blackgrass plant response rating: 0
Surinam grass; Postemergence, Rate 250 g/ha, scale 0 to 10, 0 no effect, 10 complete control
  B. signalgrass plant response rating: 0
Surinam grass; [6]
  B. signalgrass plant response rating: 0
Surinam grass; [7]
  Plant response rating, B. signalgrass: 0
Surinam grass; [8]
  Plant response rating, B. signalgrass: 0
Surinam grass; [9]
  B. signalgrass plant response rating: 0
Surinam grass; [10]
  B. signalgrass plant response rating: 3
Surinam grass; [11]
  B. signalgrass plant response rating: 0
Surinam grass; [12]
  B. signalgrass plant response rating: 0
cocklebur; [5]
  Cocklebur plant response rating: 0
cocklebur; [6]
  Cocklebur plant response rating: 1
cocklebur; [7]
  Plant response rating, Cocklebur: 0
cocklebur; [8]
  Plant response rating, Cocklebur: 0
cocklebur; [9]
  Cocklebur plant response rating: 0
cocklebur; [10]
  Cocklebur plant response rating: 0
cocklebur; [11]
  Cocklebur plant response rating: 0
cocklebur; [12]
  Cocklebur plant response rating: 0
corn; [5]
  Corn plant response rating: 0
corn; [6]
  Corn plant response rating: 0
corn; [7]
  Plant response rating, Corn: 0
corn; [8]
  Plant response rating, Corn: 0
corn; [9]
  Corn plant response rating: 0
corn; [10]
  Corn plant response rating: 0
corn; [11]
  Corn plant response rating: 0
corn; [12]
  Corn plant response rating: 0
crabgrass; [5]
  Crabgrass plant response rating: 0
crabgrass; [6]
  Crabgrass plant response rating: 3
crabgrass; [7]
  Plant response rating, Crabgrass: 2
crabgrass; [8]
  Plant response rating, Crabgrass: 7
crabgrass; [9]
  Crabgrass plant response rating: 9
crabgrass; [10]
  Crabgrass plant response rating: 10
crabgrass; [11]
  Crabgrass plant response rating: 0
crabgrass; [12]
  Crabgrass plant response rating: 0
Giant foxtail; [5]
  Giant foxtail plant response rating: 0
Giant foxtail; [6]
  Giant foxtail plant response rating: 0
Giant foxtail; [7]
  Plant response rating, Giant foxtail: 0
Giant foxtail; [8]
  Plant response rating, Giant foxtail: 7
Giant foxtail; [9]
  Giant foxtail plant response rating: 8
Giant foxtail; [10]
  Giant foxtail plant response rating: 10
Giant foxtail; [11]
  Giant foxtail plant response rating: 0
Giant foxtail; [12]
  Giant foxtail plant response rating: 0
morningglory; [5]
  Morningglory plant response rating: 2
morningglory; [6]
  Morningglory plant response rating: 3
morningglory; [7]
  Plant response rating, Morningglory: 0
morningglory; [8]
  Plant response rating, Morningglory: 0
morningglory; [9]
  Morningglory plant response rating: 0
morningglory; [10]
  Morningglory plant response rating: 0
morningglory; [12]
  Morningglory plant response rating: 1
pigweed; [5]
  Redroot pigweed plant response rating: 0
pigweed; [6]
  Redroot pigweed plant response rating: 3
pigweed; [7]
  Plant response rating, Redroot pigweed: 0
pigweed; [8]
  Plant response rating, Redroot pigweed: 0
pigweed; [9]
  Redroot pigweed plant response rating: 0
pigweed; [10]
  Redroot pigweed plant response rating: 0
pigweed; [12]
  Redroot pigweed plant response rating: 0
rape; [5]
  Rape plant response rating: 0
rape; [6]
  Rape plant response rating: 0
rape; [7]
  Plant response rating, Rape: 0
rape; [8]
  Plant response rating, Rape: 0
rape; [9]
  Rape plant response rating: 0
rape; [10]
  Rape plant response rating: 0
rape; [12]
  Rape plant response rating: 0
soybean; [5]
  Soybean plant response rating: 2
soybean; [6]
  Soybean plant response rating: 3
soybean; [7]
  Plant response rating, Soybean: 0
soybean; [8]
  Plant response rating, Soybean: 0
soybean; [9]
  Soybean plant response rating: 0
soybean; [10]
  Soybean plant response rating: 0
soybean; [12]
  Soybean plant response rating: 1
Sugar beet; [5]
  Sugarbeets plant response rating: 0
Sugar beet; [6]
  Sugarbeets plant response rating: 0
Sugar beet; [7]
  Plant response rating, Sugarbeets: 0
Sugar beet; [8]
  Plant response rating, Sugarbeets: 0
Sugar beet; [9]
  Sugarbeets plant response rating: 0
Sugar beet; [10]
  Sugarbeets plant response rating: 0
Sugar beet; [12]
  Sugarbeets plant response rating: 0
velvetleaf; [5]
  Velvetleaf plant response rating: 2
velvetleaf; [6]
  Velvetleaf plant response rating: 7
velvetleaf; [7]
  Plant response rating, Velvetleaf: 0
velvetleaf; [8]
  Plant response rating, Velvetleaf: 0
velvetleaf; [9]
  Velvetleaf plant response rating: 0
velvetleaf; [10]
  Velvetleaf plant response rating: 0
velvetleaf; [12]
  Velvetleaf plant response rating: 0
wheat; [5]
  Wheat plant response rating: 0
wheat; [6]
  Wheat plant response rating: 0
wheat; [7]
  Plant response rating, Wheat: 0
wheat; [8]
  Plant response rating, Wheat: 0
wheat; [9]
  Wheat plant response rating: 0
wheat; [10]
  Wheat plant response rating: 0
wheat; [12]
  Wheat plant response rating: 0
Wild oat; [5]
  Wild oats plant response rating: 0
Wild oat; [6]
  Wild oats plant response rating: 0
Wild oat; [7]
  Plant response rating, Wild oats: 0
Wild oat; [8]
  Plant response rating, Wild oats: 0
Wild oat; [9]
  Wild oats plant response rating: 0
Wild oat; [10]
  Wild oats plant response rating: 2
Wild oat; [12]
  Wild oats plant response rating: 0
Purple nutsedge; [5]
  Nutsedge plant response rating: 0
Purple nutsedge; [6]
  Nutsedge plant response rating: 0
Purple nutsedge; [7]
  Plant response rating, Nutsedge: 0
Purple nutsedge; [8]
  Plant response rating, Nutsedge: 0
Purple nutsedge; [9]
  Nutsedge plant response rating: 0
Purple nutsedge; [10]
  Nutsedge plant response rating: 0
Purple nutsedge; [12]
  Nutsedge plant response rating: 0
rice; [13]
  Rice plant response rating: 2
rice; [14]
  Rice plant response rating: 2
rice; [15]
  Rice plant response rating: 0
Smallflower flatsedge; [13]
  S. Flatsedge plant response rating: 0
Smallflower flatsedge; [14]
  S. Flatsedge plant response rating: 9
Smallflower flatsedge; [15]
  S. Flatsedge plant response rating: 0
Duck salad; [13]
  Ducksalad plant response rating: 3
Duck salad; [14]
  Ducksalad plant response rating: 5
Duck salad; [16]
  Ducksalad plant response rating: 0
Duck salad; [15]
  Ducksalad plant response rating: 0
bamyardgrass; [13]
  Barnyardgrass plant response rating: 2
bamyardgrass; [14]
  Barnyardgrass plant response rating: 5
bamyardgrass; [16]
  Barnyardgrass plant response rating: 0
bamyardgrass; [15]
  Barnyardgrass plant response rating: 0
